In ChEMBL document CHEMBL4837240 (J Med Chem, 2021):
The source made the active and inactive calls. The rule behind the calls is not given here.

Columns and labels:
[1] = Toxicity in BALB/c mouse xenografted with MDA-MB-231 cells assessed as effect on body weight at 50 mg/kg, po; format: organism-based; settings: in vivo
[2] = Toxicity in BALB/c mouse xenografted with MDA-MB-231 cells assessed as change in kidney at 300 mg/kg, po by hematoxylin and eosin staining based analysis; format: organism-based; settings: in vivo
[3] = Antiproliferative activity against VEGF-D-induced human dermal lymphatic endothelial cells assessed as cell viability incubated for 48 hrs by CCK-8 assay; format: functional, tissue-based; settings: HDLEC
HDLEC [4] = experiment: Anti-lymphangiogenic activity against human dermal lymphatic endothelial cells assessed as inhibition of VEGF-C-mediated tube formation at 100 nM incubated for 12 hrs by inverted microscopy; format: functional, tissue-based
[5] = Antiproliferative activity against VEGF-C-induced human dermal lymphatic endothelial cells assessed as cell viability incubated for 48 hrs by CCK-8 assay; format: functional, tissue-based; settings: HDLEC
[6] = Toxicity in BALB/c mouse xenografted with MDA-MB-231 cells assessed as AST level in blood at 300 mg/kg, po; format: organism-based; settings: in vivo
HDLEC [7] = experiment: Antimigratory activity against VEGF-C-induced human dermal lymphatic endothelial cells assessed as cell migration at 100 nM incubated for 12 hrs by inverted microscopy based by transwell assay; format: functional, tissue-based
MDA-MB-231 [8] = experiment: Anticancer activity against human MDA-MB-231 cells assessed as cell viability incubated for 48 hrs by MTT assay; settings: MDA-MB-231, 48 h
[9] = Toxicity in BALB/c mouse xenografted with MDA-MB-231 cells assessed as change in lung at 300 mg/kg, po by hematoxylin and eosin staining based analysis; format: organism-based; settings: in vivo
[10] = Toxicity in BALB/c mouse xenografted with MDA-MB-231 cells assessed as change in heart at 300 mg/kg, po by hematoxylin and eosin staining based analysis; format: organism-based; settings: in vivo
[11] = Toxicity in BALB/c mouse xenografted with MDA-MB-231 cells assessed as ALT level in blood at 300 mg/kg, po; format: organism-based; settings: in vivo
[12] = Toxicity in BALB/c mouse xenografted with MDA-MB-231 cells assessed as LDH level in blood at 300 mg/kg, po; format: organism-based; settings: in vivo
[13] = Toxicity in BALB/c mouse xenografted with MDA-MB-231 cells assessed as change in spleen at 300 mg/kg, po by hematoxylin and eosin staining based analysis; format: organism-based; settings: in vivo
MDA-MB-436 = experiment: Anticancer activity against human MDA-MB-436 cells assessed as cell viability incubated for 48 hrs by MTT assay; settings: MDA-MB-436, 48 h
MDA-MB-231 [14] = experiment: Antimetastatic activity against human MDA-MB-231 cells injected into vein of BALB/c mouse lung metastatic model assessed as less lung metastatic nodules at 25 mg/kg, po once a day measured on day 21; format: functional, organism-based; settings: time 21.0 day
[15] = Toxicity in BALB/c mouse xenografted with MDA-MB-231 cells assessed as change in liver at 300 mg/kg, po by hematoxylin and eosin staining based analysis; format: organism-based; settings: in vivo
[16] = Toxicity in BALB/c mouse xenografted with MDA-MB-231 cells assessed as uric acid level in blood at 300 mg/kg, po; format: organism-based; settings: in vivo
[17] = Toxicity in BALB/c mouse xenografted with MDA-MB-231 cells assessed as change in liver at 25 mg/kg, po by hematoxylin and eosin staining based analysis; format: organism-based; settings: in vivo
[18] = Toxicity in BALB/c mouse xenografted with MDA-MB-231 cells assessed as creatinine level in blood at 300 mg/kg, po; format: organism-based; settings: in vivo
HDLEC [19] = experiment: Inhibition of cell migration in VEGF-C-induced human dermal lymphatic endothelial cells assessed as cell migration at 100 nM incubated for 24 hrs by inverted microscopy based by scratch wound healing assay; format: functional, tissue-based
[20] = molecular target: Mast/stem cell growth factor receptor Kit (Homo sapiens, UniProt P10721); experiment: Inhibition of c-Kit (unknown origin)
[21] = molecular target: Platelet-derived growth factor receptor beta (Homo sapiens, UniProt P09619); experiment: Inhibition of PDGFRbeta (unknown origin)
Platelet-derived growth factor receptor beta, sequence (P09619 whole entry): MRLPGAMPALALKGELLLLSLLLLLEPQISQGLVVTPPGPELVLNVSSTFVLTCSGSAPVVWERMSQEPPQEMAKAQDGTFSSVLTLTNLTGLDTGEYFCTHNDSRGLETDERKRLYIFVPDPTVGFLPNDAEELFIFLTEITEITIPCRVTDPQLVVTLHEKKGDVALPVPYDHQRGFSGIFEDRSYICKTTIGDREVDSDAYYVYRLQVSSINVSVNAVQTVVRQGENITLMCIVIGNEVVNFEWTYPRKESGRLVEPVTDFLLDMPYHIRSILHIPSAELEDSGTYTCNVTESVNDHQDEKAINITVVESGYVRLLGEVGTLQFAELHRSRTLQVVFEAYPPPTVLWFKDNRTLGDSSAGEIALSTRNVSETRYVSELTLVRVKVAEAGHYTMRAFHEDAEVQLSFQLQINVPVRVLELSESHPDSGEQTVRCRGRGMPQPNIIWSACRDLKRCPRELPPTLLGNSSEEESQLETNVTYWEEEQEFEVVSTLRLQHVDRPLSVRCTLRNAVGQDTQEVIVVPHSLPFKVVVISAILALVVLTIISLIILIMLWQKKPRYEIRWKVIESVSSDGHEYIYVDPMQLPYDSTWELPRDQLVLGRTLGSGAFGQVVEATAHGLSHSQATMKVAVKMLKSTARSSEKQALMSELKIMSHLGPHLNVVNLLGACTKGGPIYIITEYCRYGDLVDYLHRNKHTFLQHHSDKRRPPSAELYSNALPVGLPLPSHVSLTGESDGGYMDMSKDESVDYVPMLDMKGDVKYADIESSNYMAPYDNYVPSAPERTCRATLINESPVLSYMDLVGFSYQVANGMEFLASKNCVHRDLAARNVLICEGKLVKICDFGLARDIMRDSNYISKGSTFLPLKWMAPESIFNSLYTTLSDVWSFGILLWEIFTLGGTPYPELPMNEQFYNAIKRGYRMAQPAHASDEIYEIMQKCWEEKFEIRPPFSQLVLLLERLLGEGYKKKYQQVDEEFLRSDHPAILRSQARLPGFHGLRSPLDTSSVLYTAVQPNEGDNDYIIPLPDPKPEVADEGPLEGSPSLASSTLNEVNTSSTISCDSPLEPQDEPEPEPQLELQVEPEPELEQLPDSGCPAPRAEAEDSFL

Mast/stem cell growth factor receptor Kit, sequence (P10721 whole entry): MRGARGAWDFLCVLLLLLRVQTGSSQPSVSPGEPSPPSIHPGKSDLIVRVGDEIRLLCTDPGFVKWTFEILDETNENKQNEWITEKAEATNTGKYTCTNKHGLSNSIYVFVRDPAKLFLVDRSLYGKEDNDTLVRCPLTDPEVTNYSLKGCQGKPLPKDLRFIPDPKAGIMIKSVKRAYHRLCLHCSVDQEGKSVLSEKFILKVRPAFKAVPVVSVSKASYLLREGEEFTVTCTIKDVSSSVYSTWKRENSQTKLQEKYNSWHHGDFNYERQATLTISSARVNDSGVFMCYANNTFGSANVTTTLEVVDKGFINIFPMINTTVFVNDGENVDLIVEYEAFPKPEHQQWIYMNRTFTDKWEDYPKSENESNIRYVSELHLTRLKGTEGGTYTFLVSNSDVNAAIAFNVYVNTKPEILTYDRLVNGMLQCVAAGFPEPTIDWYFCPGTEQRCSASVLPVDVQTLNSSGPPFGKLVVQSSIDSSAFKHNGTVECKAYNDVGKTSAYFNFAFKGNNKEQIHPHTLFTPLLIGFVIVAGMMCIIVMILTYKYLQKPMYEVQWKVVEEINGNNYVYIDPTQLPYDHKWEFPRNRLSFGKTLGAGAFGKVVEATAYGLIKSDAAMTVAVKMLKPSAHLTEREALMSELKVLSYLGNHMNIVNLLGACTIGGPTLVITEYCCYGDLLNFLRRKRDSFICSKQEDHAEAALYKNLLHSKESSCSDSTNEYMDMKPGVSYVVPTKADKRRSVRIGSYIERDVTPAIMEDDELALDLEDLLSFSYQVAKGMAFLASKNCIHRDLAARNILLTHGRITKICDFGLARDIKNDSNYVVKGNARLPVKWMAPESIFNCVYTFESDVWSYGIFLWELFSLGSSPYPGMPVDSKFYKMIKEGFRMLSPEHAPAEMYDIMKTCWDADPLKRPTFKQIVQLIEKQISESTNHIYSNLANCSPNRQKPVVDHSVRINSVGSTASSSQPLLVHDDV

Compound	IC50 (MDA-MB-231 [8])	IC50 (MDA-MB-436)	other results
CCn1c(N)c(C(=O)NC)c(=O)c2ccc(C#C[C@@](C)(O)COC)nc21	> 50 µM	> 50 µM	Activity [1]: Toxic; Activity [2]: Toxic; IC50 [3]: 0.72 µM; Activity (HDLEC [4]): Active; IC50 [5]: 0.307 µM; Activity [6]: Toxic; Activity (HDLEC [7]): Active; Activity [9]: Toxic; Activity [10]: Toxic; Activity [11]: Toxic; Activity [12]: Toxic; Activity [13]: Toxic; Activity (MDA-MB-231 [14]): Active; Activity [15]: Toxic; Activity [16]: Toxic; Activity [17]: Toxic; Activity [18]: Toxic; Activity (HDLEC [19]): Active
C=CS(=O)(=O)N1CCN(c2ncnc3sc(-c4ccccc4)cc23)CC1	54.2 µM	21.1 µM	
C=CS(=O)(=O)N1CCN(c2ncnc3sc(-c4cccc5ccccc45)cc23)CC1	23.7 µM	28.1 µM	
CN1CCN(c2ccc(-c3cc4c(N5CCN(C(=O)Nc6ccccc6)CC5)ncnc4s3)cc2)CC1	7.59 µM	7.09 µM	
C=CS(=O)(=O)N1CCN(c2ncnc3sc(-c4c(C)noc4C)cc23)CC1	28.2 µM	34.6 µM	
C=CS(=O)(=O)N1CCN(c2nc(OC[C@H]3CCCN3C)nc3sc(-c4ccc(OC)nc4)cc23)CC1	3.56 µM	4.98 µM	
CN1CCN(c2ccc(-c3cc4c(N5CCN(C(=O)Nc6cccc(F)c6)CC5)ncnc4s3)cc2)CC1	13.2 µM	18.3 µM	
CN1CCN(c2ccc(-c3cc4c(N5CCN(C(=O)Nc6ccc(C#N)cc6)CC5)ncnc4s3)cc2)CC1	3.93 µM	5.01 µM	
C=CS(=O)(=O)N1CCN(c2ncnc3ccc(-c4ccccc4)cc23)CC1	47.9 µM	23.4 µM	
CN1CCN(c2ccc(-c3cc4c(N5CCN(C(=O)Nc6ccc(Cl)cc6)CC5)ncnc4s3)cc2)CC1	5.44 µM	9.27 µM	
C=CS(=O)(=O)N1CCN(c2ncnc3sc(-c4ccc(OC)nc4)cc23)CC1	9.27 µM	11.9 µM	
COc1ccc(NC(=O)N2CCN(c3ncnc4sc(-c5ccc(N6CCN(C)CC6)cc5)cc34)CC2)cc1	20.9 µM	30.1 µM	
C=CS(=O)(=O)N1CCN(c2ncnc3sc(-c4cn(S(=O)(=O)c5ccccc5)c5ccccc45)cc23)CC1	40.4 µM	38 µM	
CN1CCN(c2ccc(-c3cc4c(N5CCN(C(=O)Nc6cc(C(F)(F)F)ccc6F)CC5)ncnc4s3)cc2)CC1	9.09 µM	8.84 µM	
C=CS(=O)(=O)N1CCN(c2ncnc3sc(-c4ccc(F)nc4)cc23)CC1	16 µM	17.5 µM	
C=CS(=O)(=O)N1CCN(c2ncnc3sc(-c4cn(C)nc4C(F)(F)F)cc23)CC1	10.4 µM	15.1 µM	
C=CS(=O)(=O)N1CCN(c2ncnc3sc(C4=CCCCC4)cc23)CC1	> 50 µM	> 50 µM	
C=CS(=O)(=O)N1CCN(c2ccnc3ccc(-c4ccccc4)cc23)CC1	25.4 µM	25.3 µM	
CN1CCN(c2ccc(-c3cc4c(N5CCN(C(=O)Nc6ccccc6F)CC5)ncnc4s3)cc2)CC1	10.3 µM	14.3 µM	
C=CS(=O)(=O)N1CCN(c2ncnc3sc(-c4ccc(OC)cc4)cc23)CC1	29.9 µM	28.4 µM	
C=CS(=O)(=O)N1CCN(c2nc(OC[C@H]3CCCN3C)nc3sccc23)CC1	> 50 µM	> 50 µM	
C=CS(=O)(=O)N1CCN(c2ncnc3sc(-c4ccc(N5CCN(C)CC5)cc4)cc23)[C@@H](C)C1	6.18 µM	6.92 µM	
C=CS(=O)(=O)N1CCN(c2ccn3ncc(-c4ccc(N5CCOCC5)cc4)c3n2)CC1	42.3 µM	16.2 µM	
C=CS(=O)(=O)N1CCN(c2ncnc3sc(-c4ccc(C#N)cc4)cc23)CC1	8.05 µM	9.17 µM	
C=CS(=O)(=O)N1CCN(c2nc(OC[C@H]3CCCN3C)nc3sc(-c4ccc(C(=O)N5CCN(C)CC5)cc4)cc23)CC1	4.2 µM	3.44 µM	
C=CS(=O)(=O)N1CCN(c2ncnc3sc(-c4cnn(Cc5ccccc5)c4)cc23)CC1	19.1 µM	18.3 µM	
C=CS(=O)(=O)N1CCN(c2nc(OC[C@H]3CCCN3C)nc3sc(-c4ccc(C(=O)N5CCN(C)CC5)cc4)cc23)[C@@H](C)C1	3.33 µM	1.53 µM	

Compound	IC50 (MDA-MB-231 [8])	IC50 (MDA-MB-436)	other results
CCCNC(=O)N1CCN(c2ncnc3sc(-c4ccc(N5CCN(C)CC5)cc4)cc23)CC1	8.33 µM	12.4 µM	
CN1CCN(c2ccc(-c3cc4c(N5CCN(C(=O)Nc6ccc(F)cc6F)CC5)ncnc4s3)cc2)CC1	11.4 µM	20.2 µM	
C=CS(=O)(=O)N1CCN(c2ncnc3sc(-c4ccc(C(=O)N5CCN(C)CC5)cc4)cc23)CC1	8.65 µM	9.66 µM	
CN1CCN(c2ccc(-c3cc4c(N5CCN(S(=O)(=O)C6CC6)CC5)ncnc4s3)cc2)CC1	11.5 µM	10.6 µM	
C=CS(=O)(=O)N1CCN(c2nc(OC[C@H]3CCCN3C)nc3sc(-c4ccc(N5CCN(C)CC5)cc4)cc23)[C@@H](C)C1	2.88 µM	1.92 µM	
CN1CCN(c2ccc(-c3cc4c(N5CCN(C(=O)Nc6ccc(OC(F)(F)F)cc6)CC5)ncnc4s3)cc2)CC1	4.6 µM	6.25 µM	
CN1CCN(c2ccc(-c3cc4c(N5CCN(S(=O)(=O)c6ccccc6)CC5)nc(OCC5CCCCN5C)nc4s3)cc2)CC1 (centres undefined)	4.42 µM	10.7 µM	
C=CS(=O)(=O)N1CCN(c2ncnc3sc(-c4cccs4)cc23)CC1	34.1 µM	39 µM	
C=CS(=O)(=O)N1CCN(c2ncnc3sc(-c4cccc5ncccc45)cc23)CC1	21 µM	25.9 µM	
CC(C)c1cccc(C(C)C)c1NC(=O)N1CCN(c2ncnc3sc(-c4ccc(N5CCN(C)CC5)cc4)cc23)CC1	8.43 µM	11.3 µM	
C=CS(=O)(=O)N1CCN(c2ncnc3sc(-c4ccc(N5CCOCC5)cc4)cc23)CC1	18.4 µM	17.7 µM	
C=CC(=O)N1CCN(c2nc(OC[C@H]3CCCN3C)nc3sc(-c4ccc(C(=O)N5CCN(C)CC5)cc4)cc23)CC1	5.39 µM	12.2 µM	
CCS(=O)(=O)N1CCN(c2nc(OC[C@H]3CCCN3C)nc3sc(-c4ccc(C(=O)N5CCN(C)CC5)cc4)cc23)CC1	4.2 µM	3.44 µM	
C=CS(=O)(=O)N1CCN(c2ncnc3sc(-c4cc(Br)cnc4F)cc23)CC1	24.1 µM	28.4 µM	
CN1CCN(c2ccc(-c3cc4c(N5CCN(S(=O)(=O)N6CCCCC6)CC5)ncnc4s3)cc2)CC1	8.13 µM	7.57 µM	
CN1CCN(c2ccc(-c3cc4c(N5CCN(S(=O)(=O)/C=C/c6ccccc6)CC5)ncnc4s3)cc2)CC1	5.9 µM	8.67 µM	
C=CS(=O)(=O)N1CCN(c2ncnc3sc(-c4ccc(N5CCN(C)CC5)cc4)cc23)CC1	7.55 µM	8.76 µM	
C=CS(=O)(=O)N1CCN(c2ccn3ncc(-c4ccccc4)c3n2)CC1	38.3 µM	19.5 µM	
COc1ccccc1NC(=O)N1CCN(c2ncnc3sc(-c4ccc(N5CCN(C)CC5)cc4)cc23)CC1	23.2 µM	26.3 µM	
CNC(=O)c1cc(COc2nnc(Nc3ccc(Cl)cc3)c3ccoc23)ccn1 [TELATINIB]			IC50 [20]: 0.001 µM; IC50 [21]: 0.015 µM
C=CS(=O)(=O)N1CCN(c2nc(OC[C@H]3CCCN3C)nc3sc(-c4ccc(C#N)cc4)cc23)CC1	3.01 µM	2.29 µM	
C=CS(=O)(=O)N1CCN(c2ncnc3sc(-c4ccnc(Cl)c4)cc23)CC1	27.7 µM	30.1 µM	
C=CS(=O)(=O)N1CCN(c2nc(OC[C@H]3CCCN3C)nc3sc(-c4ccc(N5CCN(C)CC5)cc4)cc23)CC1	0.76 µM	0.54 µM	
C=CS(=O)(=O)N1CCN(c2nc(OCC3CCCCN3C)nc3sc(-c4ccc(C#N)cc4)cc23)CC1 (centres undefined)	3.18 µM	4.08 µM	
CCS(=O)(=O)N1CCN(c2ncnc3sc(-c4ccc(N5CCN(C)CC5)cc4)cc23)CC1	7.33 µM	10.6 µM	
C=CS(=O)(=O)N1CCN(c2ncnc3sc(-c4ccc(C(F)(F)F)cc4)cc23)CC1	6.41 µM	7.08 µM	
